molecular target: T1, human TLR8 (Homo sapiens, UniProt Q9NR97); test: HEK293-Blue-hTLR-8 cells assay; format: cell-based; conditions: HEK293-Blue-hTLR8 cells, R848 stimulation, 20 hrs, SEAP reporter; read-out: HEK/hTLR8 IC50
T1 construct: host or cells: HEK293 (HEK-Blue hTLR8)
T1 sequence (Q9NR97 27-1041): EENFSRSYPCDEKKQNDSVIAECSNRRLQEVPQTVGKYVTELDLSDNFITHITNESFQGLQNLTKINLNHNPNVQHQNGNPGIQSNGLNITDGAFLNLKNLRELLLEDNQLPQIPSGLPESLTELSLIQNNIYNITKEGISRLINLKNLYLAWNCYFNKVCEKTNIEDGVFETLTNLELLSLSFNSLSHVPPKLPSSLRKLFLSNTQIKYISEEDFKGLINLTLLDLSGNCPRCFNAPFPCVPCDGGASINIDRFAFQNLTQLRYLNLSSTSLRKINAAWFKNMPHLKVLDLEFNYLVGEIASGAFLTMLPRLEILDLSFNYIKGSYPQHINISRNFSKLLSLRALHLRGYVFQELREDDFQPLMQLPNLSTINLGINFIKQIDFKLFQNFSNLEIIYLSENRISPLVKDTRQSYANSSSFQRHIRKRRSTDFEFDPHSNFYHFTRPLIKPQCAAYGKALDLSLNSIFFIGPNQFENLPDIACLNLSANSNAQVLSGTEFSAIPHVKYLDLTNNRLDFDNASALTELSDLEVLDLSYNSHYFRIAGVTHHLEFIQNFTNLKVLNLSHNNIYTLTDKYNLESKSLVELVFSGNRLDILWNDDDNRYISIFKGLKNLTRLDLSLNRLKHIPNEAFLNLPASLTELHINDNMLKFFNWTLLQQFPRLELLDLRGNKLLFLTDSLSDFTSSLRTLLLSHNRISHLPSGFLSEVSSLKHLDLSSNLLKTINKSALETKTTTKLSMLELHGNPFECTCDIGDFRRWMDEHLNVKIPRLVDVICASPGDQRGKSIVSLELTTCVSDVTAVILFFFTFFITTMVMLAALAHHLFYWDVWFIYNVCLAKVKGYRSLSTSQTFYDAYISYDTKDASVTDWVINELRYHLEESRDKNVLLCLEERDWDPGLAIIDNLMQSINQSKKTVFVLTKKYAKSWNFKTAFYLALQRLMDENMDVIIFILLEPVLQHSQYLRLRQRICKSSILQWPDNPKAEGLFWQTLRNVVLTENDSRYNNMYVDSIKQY
Source text: HEK293-Blue-hTLR-8 Cells Assay:
A stable HEK293-Blue-hTLR-8 cell line was purchased from InvivoGen (Cat. #: hkb-htlr8, San Diego, Calif., USA). These cells were originally designed for studying the stimulation of human TLR8 by monitoring the activation of NF-κB. A SEAP (secreted embryonic alkaline phosphatase) reporter gene was placed under the control of the IFN-β minimal promoter fused to five NF-κB and AP-1-binding sites. The SEAP was induced by activating NF-κB and AP-1 via stimulating HEK-Blue hTLR8 cells with TLR8 ligands. Therefore the reporter expression was declined by TLR8 antagonist under the stimulation of a ligand, such as R848, for incubation of 20 hrs. The cell culture supernatant SEAP reporter activity was determined using QUANTI-Blue™ kit (Cat. #: rep-qbl, Invivogen, San Diego, Ca, USA) at a wavelength of 640 nm, a detection medium that turns purple or blue in the presence of alkaline phosphatase.
HEK293-Blue-hTLR8 cells were incubated at a density of 250,000˜450,000 cells/mL in a volume of 170 μL in a 96-well plate in Dulbecco's Modified Eagle's medium (DMEM) containing 4.5 g/L glucose, 50 U/mL penicillin, […], […], 2 mM L-glutamine, 10% (v/v) heat-inactivated fetal bovine serum with addition of 20 μL test compound in a serial dilution in the presence of final DMSO at 1% and 10 μL of 60 uM R848 in above DMEM, perform incubation under 37° C. in a CO2 incubator for 20 hrs. Then 20 μL of the supernatant from each well was incubated with 180 μL Quanti-blue substrate solution at 37° C. for 2 hrs and the absorbance was read at 620-655 nm using a spectrophotometer. The signaling pathway that TLR8 activation leads to downstream NF-κB activation has been widely accepted, and therefore similar reporter assay was modified for evaluating TLR8 antagonist.

SMILES | IC50 [nM]
[2H]c1ccc2c(N3C[C@@H](C)N4Cc5nc(N6CC[C@H](N)[C@H](OC)C6)ccc5[C@H]4C3)ccc(C#N)c2n1 [Example 13, 5-[(2S,6R)-11-[(3R,4S)-4-amino-3-methoxy-1-piperidyl]-6-methyl-4,7,10-triazatricyclo[7.4.0.02,7]trideca-1(9),10,12-trien-4-yl]-2-deuterio-quinoline-8-carbonitrile] | < 0.3
C[C@@H]1CN(c2ccc(C#N)c3ncccc23)C[C@@H]2c3ccc(N4CCCNCC4)nc3CN12 [Example 20, 5-[(2S,6R)-11-(1,4-diazepan-1-yl)-6-methyl-4,7,10-triazatricyclo[7.4.0.02,7]trideca-1(9),10,12-trien-4-yl]quinoline-8-carbonitrile] | < 0.3
[2H]c1ccc2c(N3C[C@@H](C)N4Cc5nc(OC6CCNCC6)ccc5[C@H]4C3)ccc(C#N)c2n1 [Example 24, 2-Deuterio-5-[(2S,6R)-6-methyl-11-(4-piperidyloxy)-4,7,10-triazatricyclo[7.4.0.02,7]trideca-1(9),10,12-trien-4-yl]quinoline-8-carbonitrile] | < 0.3
[2H]c1ccc2c(N3C[C@@H](C)N4Cc5nc(N6CC[C@@H](OC)[C@H](N)C6)ccc5[C@H]4C3)ccc(C#N)c2n1 [Example 15, 5-[(2S,6R)-11-[(3R,4R)-3-amino-4-methoxy-1-piperidyl]-6-methyl-4,7,10-triazatricyclo[7.4.0.02,7]trideca-1(9),10,12-trien-4-yl]-2-deuterio-quinoline-8-carbonitrile] | < 0.3
[2H]c1ccc2c(N3C[C@@H](C)N4Cc5nc(N6CCC(C)(N)CC6)ccc5[C@H]4C3)ccc(C#N)c2n1 [Example 19, 5-[(2S,6R)-11-(4-amino-4-methyl-1-piperidyl)-6-methyl-4,7,10-triazatricyclo[7.4.0.02,7]trideca-1(9),10,12-trien-4-yl]-2-deuterio-quinoline-8-carbonitrile] | < 0.3

Reference: patent US12503471B2, “Triazatricycle compounds for the treatment of autoimmune disease” (Hoffmann-La Roche Inc., priority 2019, dated 2025)
